Where two headings read alike, the source gives them in different places.
How the values were obtained:
Experiment in all cases: Test C pre/postemergence
Type in all cases: in vivo
[1] = tested on: bermudagrass (Cynodon dactylon); conditions: Cynodon dactylon; for pest or weed control at 31 g/ha: 31 g ai/ha; for pest or weed control at 62 g/ha: 62 g ai/ha; for pest or weed control at 125 g/ha: 125 g ai/ha; for pest or weed control at 125 g/ha / pest or weed control at 250 g/ha: scale 0 to 100; for pest or weed control at 250 g/ha: 250 g ai/ha
Method in brief: (§1)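 Greenhouse pot test: seeds treated preemergence, or plants at 2–18 cm (1- to 4-leaf stage) treated postemergence, with compound in non-phytotoxic solvent plus surfactant. Visual rating versus untreated controls after 12–14 days, scale 0 (no effect) to 100 (complete control); dash means not tested.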

[2] = tested on: cocklebur (Xanthium strumarium); conditions: Xanthium strumarium; for pest or weed control at 31 g/ha: 31 g ai/ha; for pest or weed control at 62 g/ha: 62 g ai/ha; for pest or weed control at 125 g/ha: 125 g ai/ha; for pest or weed control at 250 g/ha: 250 g ai/ha
Method in brief: as §1

[3] = tested on: corn (Zea mays); conditions: Zea mays; for Corn plant response rating (crop injury, 0 = no effect, 100 = complete kill) at 31 g/ha: 31 g ai/ha; for Corn plant response rating (crop injury, 0 = no effect, 100 = complete kill) at 62 g/ha: 62 g ai/ha; for Corn plant response rating (crop injury, 0 = no effect, 100 = complete kill) at 125 g/ha: 125 g ai/ha; for Corn plant response rating (crop injury, 0 = no effect, 100 = complete kill) at 250 g/ha: 250 g ai/ha
Method in brief: as §1

[4] = tested on: crabgrass (Digitaria sanguinalis); conditions: Digitaria sanguinalis; for pest or weed control at 31 g/ha: 31 g ai/ha; for pest or weed control at 62 g/ha: 62 g ai/ha; for pest or weed control at 125 g/ha: 125 g ai/ha; for pest or weed control at 250 g/ha: 250 g ai/ha
Method in brief: as §1

[5] = tested on: eastern black nightshade (Solanum ptycanthum); conditions: Solanum, pre-emergence, Preemergence, read-out: Plant response rating, Nightshade
Method in brief: as §1

[6] = tested on: goosegrass (Eleusine indica); conditions: Eleusine indica; for pest or weed control at 31 g/ha: 31 g ai/ha; for pest or weed control at 62 g/ha: 62 g ai/ha; for pest or weed control at 125 g/ha: 125 g ai/ha; for pest or weed control at 250 g/ha: 250 g ai/ha
Method in brief: as §1

[7] = tested on: lambsquarters (Chenopodium album); conditions: Chenopodium album; for pest or weed control at 31 g/ha: 31 g ai/ha; for pest or weed control at 62 g/ha: 62 g ai/ha; for pest or weed control at 125 g/ha: 125 g ai/ha; for pest or weed control at 250 g/ha: 250 g ai/ha
Method in brief: as §1

[8] = tested on: velvetleaf (Abutilon theophrasti); conditions: Abutilon theophrasti; for pest or weed control at 31 g/ha: 31 g ai/ha; for pest or weed control at 62 g/ha: 62 g ai/ha; for pest or weed control at 125 g/ha: 125 g ai/ha; for pest or weed control at 250 g/ha: 250 g ai/ha
Method in brief: as §1

[9] = post-emergence, Postemergence, read-out: Plant response rating, Bermudagrass
[10] = pre-emergence, Preemergence, scale 0 to 100, 0 no effect, 100 complete control, read-out: Plant response rating, Bermudagrass
[11] = pre-emergence, Preemergence, read-out: Plant response rating, Bermudagrass
[12] = post-emergence, Postemergence, scale 0 to 100 (0 no effect, 100 complete control), read-out: Cocklebur plant response rating
[13] = pre-emergence, Preemergence, scale 0 to 100, 0 no effect, 100 complete control, read-out: Plant response rating, Cocklebur
[14] = pre-emergence, Preemergence, scale 0 to 100, read-out: Plant response rating, Cocklebur
[15] = post-emergence, Postemergence, scale 0 to 100 (0 no effect, 100 complete control), read-out: Corn plant response rating
[16] = pre-emergence, Preemergence, scale 0 to 100, 0 no effect, 100 complete control, read-out: Plant response rating, Corn
[17] = post-emergence, Postemergence, scale 0 to 100 (0 no effect, 100 complete control), read-out: Crabgrass plant response rating
[18] = pre-emergence, Preemergence, scale 0 to 100, 0 no effect, 100 complete control, read-out: Plant response rating, Crabgrass
[19] = pre-emergence, Preemergence, scale 0 to 100, read-out: Plant response rating, Crabgrass
[20] = post-emergence, Postemergence, scale 0 to 100 (0 no effect, 100 complete control), read-out: Goosegrass plant response rating
[21] = pre-emergence, Preemergence, scale 0 to 100, 0 no effect, 100 complete control, read-out: Plant response rating, Goosegrass
[22] = pre-emergence, Preemergence, scale 0 to 100, read-out: Plant response rating, Goosegrass
[23] = post-emergence, Postemergence, scale 0 to 100 (0 no effect, 100 complete control), read-out: Lambsquarters plant response rating
[24] = pre-emergence, Preemergence, scale 0 to 100, 0 no effect, 100 complete control, read-out: Plant response rating, Lambsquarters
[25] = pre-emergence, Preemergence, scale 0 to 100, read-out: Plant response rating, Lambsquarters
[26] = post-emergence, Postemergence, scale 0 to 100 (0 no effect, 100 complete control), read-out: Velvetleaf plant response rating
[27] = pre-emergence, Preemergence, scale 0 to 100, 0 no effect, 100 complete control, read-out: Plant response rating, Velvetleaf
[28] = pre-emergence, Preemergence, scale 0 to 100, read-out: Plant response rating, Velvetleaf

Structure (SMILES): COC(=O)c1nc(C(C)C)nc(N)c1Br [Compound 3]
- pest or weed control at 31 g/ha ([1]; post-emergence, Postemergence, read-out: Plant response rating (scale of 0 to 100), Bermudagrass): 0%
- pest or weed control at 62 g/ha ([1]; post-emergence, Postemergence, scale 0 to 100 (0 no effect, 100 complete control), read-out: Bermudagrass plant response rating): 0%
- pest or weed control at 125 g/ha [1, 9]: 0%
- pest or weed control at 250 g/ha [1, 9]: 45%
- pest or weed control at 31 g/ha [1, 10]: 0%
- pest or weed control at 62 g/ha [1, 10]: 0%
- pest or weed control at 125 g/ha [1, 11]: 0%
- pest or weed control at 250 g/ha [1, 11]: 0%
- pest or weed control at 31 g/ha ([2]; post-emergence, Postemergence, read-out: Plant response rating (scale of 0 to 100), Cocklebur): 60%
- pest or weed control at 62 g/ha [2, 12]: 65%
- pest or weed control at 125 g/ha [2, 12]: 75%
- pest or weed control at 250 g/ha ([2]; post-emergence, Postemergence, scale 0 to 100, read-out: Plant response rating, Cocklebur): 90%
- pest or weed control at 31 g/ha [2, 13]: 0%
- pest or weed control at 62 g/ha [2, 13]: 30%
- pest or weed control at 125 g/ha [2, 14]: 55%
- pest or weed control at 250 g/ha [2, 14]: 70%
- Corn plant response rating (crop injury, 0 = no effect, 100 = complete kill) at 31 g/ha ([3]; post-emergence, Postemergence, read-out: Plant response rating (scale of 0 to 100), Corn): 0%
- Corn plant response rating (crop injury, 0 = no effect, 100 = complete kill) at 62 g/ha [3, 15]: 0%
- Corn plant response rating (crop injury, 0 = no effect, 100 = complete kill) at 125 g/ha [3, 15]: 0%
- Corn plant response rating (crop injury, 0 = no effect, 100 = complete kill) at 250 g/ha ([3]; post-emergence, Postemergence, scale 0 to 100): 0%
- Corn plant response rating (crop injury, 0 = no effect, 100 = complete kill) at 31 g/ha [3, 16]: 0%
- Corn plant response rating (crop injury, 0 = no effect, 100 = complete kill) at 62 g/ha [3, 16]: 0%
- Corn plant response rating (crop injury, 0 = no effect, 100 = complete kill) at 125 g/ha ([3]; pre-emergence, Preemergence, scale 0 to 100, read-out: Plant response rating, Corn): 0%
- Corn plant response rating (crop injury, 0 = no effect, 100 = complete kill) at 250 g/ha ([3]; pre-emergence, Preemergence, scale 0 to 100): 0%
- pest or weed control at 31 g/ha ([4]; post-emergence, Postemergence, read-out: Plant response rating (scale of 0 to 100), Crabgrass): 0%
- pest or weed control at 62 g/ha [4, 17]: 0%
- pest or weed control at 125 g/ha [4, 17]: 0%
- pest or weed control at 250 g/ha ([4]; post-emergence, Postemergence, scale 0 to 100, read-out: Plant response rating, Crabgrass): 0%
- pest or weed control at 31 g/ha [4, 18]: 0%
- pest or weed control at 62 g/ha [4, 18]: 0%
- pest or weed control at 125 g/ha [4, 19]: 0%
- pest or weed control at 250 g/ha [4, 19]: 0%
- pest or weed control at 31 g/ha ([5]; 31 g ai/ha, scale 0 to 100, 0 no effect, 100 complete control): 0%
- pest or weed control at 62 g/ha ([5]; 62 g ai/ha, scale 0 to 100, 0 no effect, 100 complete control): 0%
- pest or weed control at 125 g/ha ([5]; 125 g ai/ha, scale 0 to 100): 0%
- pest or weed control at 250 g/ha ([5]; 250 g ai/ha, scale 0 to 100): 20%
- pest or weed control at 31 g/ha ([6]; post-emergence, Postemergence, read-out: Plant response rating (scale of 0 to 100), Goosegrass): 0%
- pest or weed control at 62 g/ha [6, 20]: 0%
- pest or weed control at 125 g/ha [6, 20]: 0%
- pest or weed control at 250 g/ha ([6]; post-emergence, Postemergence, scale 0 to 100, read-out: Plant response rating, Goosegrass): 0%
- pest or weed control at 31 g/ha [6, 21]: 0%
- pest or weed control at 62 g/ha [6, 21]: 0%
- pest or weed control at 125 g/ha [6, 22]: 0%
- pest or weed control at 250 g/ha [6, 22]: 0%
- pest or weed control at 31 g/ha ([7]; post-emergence, Postemergence, read-out: Plant response rating (scale of 0 to 100), Lambsquarters): 75%
- pest or weed control at 62 g/ha [7, 23]: 90%
- pest or weed control at 125 g/ha [7, 23]: 90%
- pest or weed control at 250 g/ha ([7]; post-emergence, Postemergence, scale 0 to 100, read-out: Plant response rating, Lambsquarters): 100%
- pest or weed control at 31 g/ha [7, 24]: 0%
- pest or weed control at 62 g/ha [7, 24]: 0%
- pest or weed control at 125 g/ha [7, 25]: 0%
- pest or weed control at 250 g/ha [7, 25]: 80%
- pest or weed control at 31 g/ha ([8]; post-emergence, Postemergence, read-out: Plant response rating (scale of 0 to 100), Velvetleaf): 25%
- pest or weed control at 62 g/ha [8, 26]: 55%
- pest or weed control at 125 g/ha [8, 26]: 55%
- pest or weed control at 250 g/ha ([8]; post-emergence, Postemergence, scale 0 to 100, read-out: Plant response rating, Velvetleaf): 70%
- pest or weed control at 31 g/ha [8, 27]: 0%
- pest or weed control at 62 g/ha [8, 27]: 0%
- pest or weed control at 125 g/ha [8, 28]: 20%
- pest or weed control at 250 g/ha [8, 28]: 35%

From US8802597B2, “Herbicidal pyrimidines” (E I du Pont de Nemours and Company, priority 2003, dated 2014)
